Patent US20240140957A1, “BRIDGED COMPOUNDS AS KRAS G12D INHIBITOR AND DEGRADER AND THE USE THEREOF” (BeiGene Switzerland GmbH, priority 2021, published 2024)
Where two headings read alike, the source gives them in different places.

Key:
[1] = biological target: KRAS G12D:SOS1 (Homo sapiens, UniProt P01116, G12D); assay: KRAS G12D:SOS1 GDP TR-FRET assay; assay type: binding; details: GST-KRAS G12D 37.5 nM, GDP 10 μM, His-SOS1 18 nM
[2] = biological target: GDP-loaded KRAS G12D (Homo sapiens, UniProt P01116, G12D); assay: KRAS G12D Probe Displacement Assay; assay type: binding
[3] = biological target: WT KRAS:SOS1 (Homo sapiens, UniProt P01116); assay: KRAS WT:SOS1 GDP TR-FRET assay; assay type: binding; details: GST-WT KRAS 37.5 nM, GDP 10 μM, His-SOS1 18 nM
[4] = test system: pERK1/2 (THR202/TYR204) in AsPC-1 cells; assay: pERK Assay (HTRF) in AsPC-1 cells; assay type: cell-based; details: Homo sapiens, ASPC1, 2 h compound treatment
[5] = biological target: GDP-loaded WT KRAS (Homo sapiens, UniProt P01116); assay: KRAS WT Probe Displacement Assay; assay type: binding
[6] = biological target: T1, KRAS G12D protein in AsPC-1 cells (Homo sapiens, UniProt P01116, G12D); assay: Western Blotting Assay in AsPC-1 cells; assay type: cell-based; details: 48 h compound treatment, concentration 3 uM
T1 construct: endogenous in cells; host or cells: AsPC-1
Procedure: AsPC-1 cell line was used in this study. […] 400000 AsPC-1 cells per well in 1 mL culture medium were seed in the 12-well plate for 4 hours. Cells were treated with an appropriate dilution series of compounds. After 48 h compound treatment, medium was aspirated, the cells were washed with PBS, and then 30 μL of 1× protein lysis buffer (Cell Signaling Technology) containing protease inhibitors (Merck) and phosphatase inhibitors (Sigma) was added. The cells were lysed, and after centrifugation, the supernatants were quantified by BCA Protein assay Kit (Thermo Fisher). 4× loading Buffer (Thermo Fisher) was added to equal amounts of total protein from each sample and heated at 95° C. for 5 minutes. […] of cell lysates were loaded onto a 12% NuPAGE Bis-Tris Gel (Thermo Fisher), electro-transferred to NC membranes (Thermo Fisher), The membranes were blocked at least 1 hour with Blocking reagent (LI-COR), and then incubated overnight with anti-KRAS (LSBio, LS-C175665) or pERK (Cell Signaling Technology, 4370L) antibodies and as loading control anti-β-actin (Cell Signaling Technology, 3700S) or anti-GAPDH (Cell Signaling Technology, 97166S) at 4° C. with gentle shaking. The membranes were washed three times with TBST, and incubated at least 1 hour at room temperature with anti-mouse or anti-Rabbit secondary fluorescent antibody (Thermo Fisher, A32729; LI-COR, 926-32213). […]

[7] = KRAS G12D 0.5 nM, biotinylated probe 2 4 nM, read-out: KRAS G12D Probe Displacement Assay IC50
[8] = WT KRAS 3 nM, biotinylated probe 1 60 nM, read-out: KRAS WT Probe Displacement Assay IC50

| SMILES | IC50 [1] | IC50 [2, 7] | IC50 [3] | IC50 [4] | IC50 [5, 8] | KRAS G12D protein level decrease [6] | IC50 [2] | IC50 [5] |
| --- | --- | --- | --- | --- | --- | --- | --- | --- |
| Cc1cc(N)nc(-c2c(Cl)cc3c(N4CC5CCC(C4)N5)nc(O[C@@H](C)CN4CCCCC4)nc3c2F)c1C(F)(F)F [Example E35, 6-(4-(3,8-diazabicyclo[3.2.1]octan-3-yl)-6-chloro-8-fluoro-2-(((S)-1-(piperidin-1-yl)propan-2-yl)oxy)quinazolin-7-yl)-4-methyl-5-(trifluoromethyl)pyridin-2-amine] | 22 nM | 130 nM | 3300 nM | 4350 nM | 7300 nM |  |  |  |
| CN1C[C@H](F)C[C@H]1COc1nc(N2C3CCC2CNC3)c2cc(Cl)c(-c3ccc(F)c4sc(N)nc34)c(F)c2n1 [Example E36, 4-(4-(3,8-diazabicyclo[3.2.1]octan-8-yl)-6-chloro-8-fluoro-2-(((2S,4R)-4-fluoro-1-methylpyrrolidin-2-yl)methoxy)quinazolin-7-yl)-7-fluorobenzo[d]thiazol-2-amine] | 10 nM | 3.7 nM | 242 nM | 715 nM | 120 nM |  |  |  |
| Cc1cc(N)nc(-c2c(Cl)cc3c(N4CC5CCC(C4)N5)nc(OC[C@@H]4C[C@@H](F)CN4C)nc3c2F)c1C(F)(F)F [Example E37, 6-(4-(3,8-diazabicyclo[3.2.1]octan-3-yl)-6-chloro-8-fluoro-2-(((2S,4R)-4-fluoro-1-methylpyrrolidin-2-yl)methoxy)quinazolin-7-yl)-4-methyl-5-(trifluoromethyl)pyridin-2-amine] | 13 nM | 16 nM | 692 nM | 807 nM | 700 nM |  |  |  |
| CC1CCCC(C)N1C[C@H](C)Oc1nc(N2CC3CCC(C2)N3)c2cc(Cl)c(-c3ccc(F)c4sc(N)nc34)c(F)c2n1 (some centres unmarked) [Example E38] | 12 nM | 32 nM | 804 nM | 1310 nM | 1400 nM |  |  |  |
| CN(C)C(=O)CCOc1nc(N2CC3CCC(C2)N3)c2cc(Cl)c(-c3ccc(F)c4sc(N)nc34)c(F)c2n1 [Example E40, 3-((7-(2-amino-7-fluorobenzo[d]thiazol-4-yl)-4-(3,8-diazabicyclo[3.2.1]octan-3-yl)-6-chloro-8-fluoroquinazolin-2-yl)oxy)-N,N-dimethylpropanamide] | 24 nM | 41 nM | 2210 nM | > 10000 nM | 1400 nM |  |  |  |
| C[C@@H](CN1CCOCC1)Oc1nc(N2C3CCC2CNC3)c2cc(Cl)c(-c3ccc(F)c4sc(N)nc34)c(F)c2n1 [Example E41, 4-(4-(3,8-diazabicyclo[3.2.1]octan-8-yl)-6-chloro-8-fluoro-2-(((S)-1-morpholinopropan-2-yl)oxy)quinazolin-7-yl)-7-fluorobenzo[d]thiazol-2-amine] | 11 nM | 11 nM | 438 nM | 1480 nM | 230 nM |  |  |  |
| C[C@@H](CN1CCC(F)C1)Oc1nc(N2C3CCC2CNC3)c2cc(Cl)c(-c3ccc(F)c4sc(N)nc34)c(F)c2n1 (stereo partly drawn) [Example E43, 4-(4-(3,8-diazabicyclo[3.2.1]octan-8-yl)-6-chloro-8-fluoro-2-(((2S)-1-(3-fluoropyrrolidin-1-yl)propan-2-yl)oxy)quinazolin-7-yl)-7-fluorobenzo[d]thiazol-2-amine] | 17 nM | 8.4 nM | 488 nM | 2550 nM | 320 nM |  |  |  |
| Cc1ncsc1-c1ccc([C@H](C)NC(=O)[C@@H]2C[C@@H](O)CN2C(=O)[C@@H](NC(=O)COC2CCN(CC(C)Oc3nc(N4CC5CCC(C4)N5)c4cc(Cl)c(-c5ccc(F)c6sc(N)nc56)c(F)c4n3)CC2)C(C)(C)C)cc1 (stereo partly drawn) [Example E44, (2S,4R)-1-((2S)-2-(2-((1-(2-((7-(2-amino-7-fluorobenzo[d]thiazol-4-yl)-4-(3,8-diazabicyclo[3.2.1]octan-3-yl)-6-chloro-8-fluoroquinazolin-2-yl)oxy)propyl)piperidin-4-yl)oxy)acetamido)-3,3-dimethylbutanoyl)-4-hydroxy-N—((S)-1-(4-(4-methylthiazol-5-yl)phenyl)ethyl)pyrrolidine-2-carboxamide] |  |  |  |  |  | 70% |  |  |
| Cc1cc(N)nc(-c2c(Cl)cc3c(N4CC5CCC(C4)N5)nc(OC[C@@]45CCCN4C[C@H](F)C5)nc3c2F)c1C(F)(F)F [Example E49, 6-(4-(3,8-diazabicyclo[3.2.1]octan-3-yl)-6-chloro-8-fluoro-2-(((2R,7aS)-2-fluorotetrahydro-1H-pyrrolizin-7a(5H)-yl)methoxy)quinazolin-7-yl)-4-methyl-5-(trifluoromethyl)pyridin-2-amine] | 4.8 nM |  | 35 nM | 84 nM |  |  | 3.1 nM | 49 nM |
| Cc1cc(N)nc(-c2c(Cl)cc3c(N4CC5CCC(C4)N5)nc(OCC45CCCN4CC(F)C5)nc3c2F)c1C(F)(F)F (centres unmarked) [Example E50, 6-(4-(3,8-diazabicyclo[3.2.1]octan-3-yl)-6-chloro-8-fluoro-2-((2-fluorotetrahydro-1H-pyrrolizin-7a(5H)-yl)methoxy)quinazolin-7-yl)-4-methyl-5-(trifluoromethyl)pyridin-2-amine] | 7.6 nM |  | 140 nM | 312 nM |  |  | 4 nM | 160 nM |
| CN1C[C@H](F)C[C@H]1COc1nc(N2CC3CCC(C2)N3)c2cc(C(F)(F)F)c(-c3ccc(F)c4sc(N)nc34)c(F)c2n1 [Example E51, 4-(4-(3,8-diazabicyclo[3.2.1]octan-3-yl)-8-fluoro-2-(((2S,4R)-4-fluoro-1-methylpyrrolidin-2-yl)methoxy)-6-(trifluoromethyl)quinazolin-7-yl)-7-fluorobenzo[d]thiazol-2-amine] | 6.5 nM | 1.1 nM | 61 nM | 202 nM | 33 nM |  |  |  |
| CN1C[C@H](F)C[C@H]1COc1nc(N2CC3CCC(C2)N3)c2cc(Cl)c(-c3ccc(F)c4sc(N)nc34)c(Cl)c2n1 [Example E53, 4-(4-(3,8-diazabicyclo[3.2.1]octan-3-yl)-6,8-dichloro-2-(((2S,4R)-4-fluoro-1-methylpyrrolidin-2-yl)methoxy)quinazolin-7-yl)-7-fluorobenzo[d]thiazol-2-amine] | 5.1 nM | 1.2 nM | 132 nM | 380 nM | 47 nM |  |  |  |
| CN1C[C@H](F)CC1(C)COc1nc(N2CC3CCC(C2)N3)c2cc(Cl)c(-c3ccc(F)c4sc(N)nc34)c(F)c2n1 (stereo partly drawn) [Example E89, 4-(4-(3,8-diazabicyclo[3.2.1]octan-3-yl)-6-chloro-8-fluoro-2-(((4R)-4-fluoro-1,2-dimethylpyrrolidin-2-yl)methoxy)quinazolin-7-yl)-7-fluorobenzo[d]thiazol-2-amine] |  | 2.4 nM |  | 556 nM | 121 nM |  |  |  |
